In US9260425B2 (Genetech, Inc., priority 2011, dated 2016):

What follows are compounds tested against Pim-1 (Homo sapiens (Human), UniProt P11309) (assay: Pim kinase binding activity assay (Example 901), PIM-1 enzyme, Caliper microfluidic peptide phosphorylation). Settings: 20 pM PIM-1, 10 μM ATP, 1 μM FAM-peptide, 90 minutes at room temperature.
Format: biochemical
Procedure, shortened: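 The readout was microfluidic mobility-shift separation of a FAM-tagged Pim-specific peptide, excited at 488 nm and read at 530 nm, with Ki calculated from percent conversion. Reactions held 20 pM PIM-1, 1 μM peptide and 10 μM ATP in pH 7.2 HEPES/MgCl2/DTT buffer, ran 90 min at room temperature and were stopped with EDTA.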

Sequence of Pim-1 (P11309 whole entry): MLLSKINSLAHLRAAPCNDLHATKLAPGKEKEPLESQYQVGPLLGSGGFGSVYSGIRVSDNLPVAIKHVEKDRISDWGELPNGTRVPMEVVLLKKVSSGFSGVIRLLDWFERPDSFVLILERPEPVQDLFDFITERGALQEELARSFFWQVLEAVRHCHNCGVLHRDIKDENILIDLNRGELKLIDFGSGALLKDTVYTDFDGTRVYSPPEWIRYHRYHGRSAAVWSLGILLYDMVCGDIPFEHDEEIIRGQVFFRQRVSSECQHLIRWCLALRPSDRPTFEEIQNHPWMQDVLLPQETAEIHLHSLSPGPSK

| SMILES | Ki [nM] |
| --- | --- |
| [O-][n+]1cc(C(F)(F)F)ccc1-c1n[nH]c2cnc(-c3cccnc3)cc12 [Example 354] | 97.9 |
| CN1C(=O)CN(c2cc3c(-c4ccccc4)n[nH]c3cn2)C1=O [Example 355, 3-methyl-1-(3-phenyl-1H-pyrazolo[3,4-c]pyridin-5-yl)imidazolidine-2,4-dione] | 809 |
| c1cc(-c2n[nH]c3cnc(-c4cncs4)cc23)nc(N2CCCCC2)c1 [Example 358, 5-(3-(6-(piperidin-1-yl)pyridin-2-yl)-1H-pyrazolo[3,4-c]pyridin-5-yl)thiazole] | 1.22 |
| c1cc(-c2n[nH]c3cnc(-c4cncs4)cc23)nc(N2CCNCC2)c1 [Example 359, 5-(3-(6-(piperazin-1-yl)pyridin-2-yl)-1H-pyrazolo[3,4-c]pyridin-5-yl)thiazole] | 0.074 |
| Cn1cc(-c2cc3c(-c4ccnc(N5CCCCC5)n4)n[nH]c3cn2)cn1 [Example 360, 5-(1-methyl-1H-pyrazol-4-yl)-3-(2-(piperidin-1-y1)pyrimidin-4-yl)-1H-pyrazolo[3,4-c]pyridine] | 0.366 |
| CCCCc1ccc(-c2n[nH]c3cnc(-c4cccnc4)cc23)nc1N1CCC[C@H](N)C1 [Example 362, (S)-1-(3-butyl-6-(5-(pyridin-3-yl)-1H-pyrazolo[3,4-c]pyridin-3-yl)pyridin-2-yl)piperidin-3-amine] | 0.079 |
| c1cc(-c2n[nH]c3cnc(-n4ccnc4)cc23)nc(N2CCCCC2)c1 [Example 363, 5-(1H-imidazol-1-yl)-3-(6-(piperidin-1-yl)pyridin-2-yl)-1H-pyrazolo[3,4-c]pyridine] | 2.41 |
| Cn1cc(-c2cc3c(-c4ccnc(N5CCC[C@@H](N)C5)n4)n[nH]c3cn2)cn1 [Example 364, (R)-1-(4-(5-(1-methyl-1H-pyrazol-4-yl)-1H-pyrazolo[3,4-c]pyridin-3-yl)pyrimidin-2-yl)piperidin-3-amine] | 0.052 |
| Cn1cc(-c2cc3c(-c4ccnc(N5CCC[C@H](N)C5)n4)n[nH]c3cn2)cn1 [Example 365, (S)-1-(4-(5-(1-methyl-1H-pyrazol-4-yl)-1H-pyrazolo[3,4-c]pyridin-3-yl)pyrimidin-2-yl)piperidin-3-amine] | 0.0941 |

Other lines, results leading:

| Ki [nM] | SMILES |
| --- | --- |
| 0.217 | Cc1ccc(-c2cc3c(-c4cccc(N5CCNCC5)n4)n[nH]c3cn2)cn1 [Example 367] |
| 1.82 | c1cc(-c2n[nH]c3cnc(-n4ccnc4)cc23)nc(N2CCNCC2)c1 [Example 368, 5-(1H-imidazol-1-yl)-3-(6-(piperazin-1-yl)pyridin-2-yl)-1H-pyrazolo[3,4-c]pyridine] |
| 1.13 | N[C@@H]1CCCN(c2cccc(-c3n[nH]c4cnc(-n5ccnc5)cc34)n2)C1 [Example 369, (R)-1-(6-(5-(1H-imidazol-1-yl)-1H-pyrazolo[3,4-c]pyridin-3-yl)pyridin-2-yl)piperidin-3-amine] |
| 180 | N[C@@H]1CCCN(c2cccc(-c3n[nH]c4cnc(N5CCOC5=O)cc34)n2)C1 [Example 370, (R)-3-(3-(6-(3-aminopiperidin-1-yl)pyridin-2-yl)-1H-pyrazolo[3,4-c]pyridin-5-yl)oxazolidin-2-one] |
| 31.1 | CN1C(=O)CN(c2cc3c(-c4cccc(N5CCNCC5)n4)n[nH]c3cn2)C1=O [Example 371, 3-methyl-1-(3-(6-(piperazin-1-yl)pyridin-2-yl)-1H-pyrazolo[3,4-c]pyridin-5-yl)imidazolidine-2,4-dione] |
| 0.268 | CCn1cc(-c2cc3c(-c4cccc(N5CCN(C)CC5)n4)n[nH]c3cn2)cn1 [Example 372, 5-(1-ethyl-1H-pyrazol-4-yl)-3-(6-(4-methylpiperazin-1-yl)pyridin-2-yl)-1H-pyrazolo[3,4-c]pyridine] |
| 483 | O=C1OCCN1c1cc2c(-c3cccc(N4CCCCC4)n3)n[nH]c2cn1 [Example 373, 3-(3-(6-(piperidin-1-yl)pyridin-2-yl)-1H-pyrazolo[3,4-c]pyridin-5-yl)oxazolidin-2-one] |
